Assay results taken from PubChem BioAssay (NCI).
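The compound was tested at five concentrations on cells cultured in 96-well plates, with a 48-hour exposure period. The concentration for 50% growth inhibition is given as GI50. TGI marks complete inhibition of growth.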

Legend:
Assay in all cases: growth of human tumour cells (NCI), 48 h
NCI-H23 lung = test system: NCI-H23 lung
M14 melanoma = test system: M14 melanoma
KM12 colon = test system: KM12 colon
MCF7 breast = test system: MCF7 breast
NCI/ADR-RES ovarian = test system: NCI/ADR-RES ovarian
UACC-257 melanoma = test system: UACC-257 melanoma
SF-539 CNS = test system: SF-539 CNS
NCI-H226 lung = test system: NCI-H226 lung
HL-60(TB) leukemia = test system: HL-60(TB) leukemia
ACHN renal = test system: ACHN renal

Compound	GI50 (NCI-H23 lung) [µM]	TGI (NCI-H23 lung) [µM]	GI50 (M14 melanoma) [µM]	TGI (M14 melanoma) [µM]	GI50 (KM12 colon) [µM]	TGI (KM12 colon) [µM]	GI50 (MCF7 breast) [µM]	TGI (MCF7 breast) [µM]	GI50 (NCI/ADR-RES ovarian) [µM]	TGI (NCI/ADR-RES ovarian) [µM]	GI50 (UACC-257 melanoma) [µM]	TGI (UACC-257 melanoma) [µM]	GI50 (SF-539 CNS) [µM]	TGI (SF-539 CNS) [µM]	GI50 (NCI-H226 lung) [µM]	TGI (NCI-H226 lung) [µM]	GI50 (HL-60(TB) leukemia) [µM]	TGI (HL-60(TB) leukemia) [µM]	GI50 (ACHN renal) [µM]	TGI (ACHN renal) [µM]
CC(=O)NC(CCc1ccc(Cl)c(Cl)c1)c1cccc(O)c(=O)c1 (stereo not drawn)	1.11	18.9	0.434	3.09	0.825	17.8	0.412	37.4	0.338	4.92	0.649	4.4	0.514	5.35	0.633	14.2	0.833	5.3	0.286	31.6
CN1CCC(=C(c2ccc(Cl)cc2)c2ccccn2)CC1	> 100	> 100	19.2	38.7	> 100	> 100	> 100	> 100	> 100	> 100	21.5	45.8	85.1	> 100	90.2	> 100	58.9	> 100	> 100	> 100
CCN(CC)Cc1cc(Nc2ccnc3ccc(OC)cc23)ccc1O	7.46	26.5	2.88	10.1	3.21	16	2.71	9.62	4.87	28.8	–	–	2.17	4.84	4.15	21.7	1.94	8.83	2.82	9.5
Oc1ccc(/C=N/NC(=S)Nc2ccccc2)nc1	3.34	> 100	–	–	1.91	> 100	2.73	> 100	1.43	> 100	2.18	6.84	0.851	6.19	2.33	6.83	1.55	6.77	0.552	> 100
N#Cc1ncc(-c2ccc(C(F)(F)F)cc2)c(NC2CCCCCC2)n1	6.48	> 100	38.5	> 100	13.6	> 100	5.68	> 100	18.1	> 100	13.7	> 100	> 100	> 100	21.8	> 100	10.4	> 100	24	> 100
Cc1c(Br)c(Br)c2c3c1nc(N1CCNCC1)n3CCC2	2.01	4.22	1.8	3.55	1.72	3.2	1.75	3.49	1.8	3.82	2.13	4.2	1.64	3.09	1.95	5.31	2.16	5.31	1.39	2.71
COc1ccc(-c2cc(-c3ccc(Cl)cc3)nc(SCCCC(=O)NO)n2)cc1OC	1.29	5.53	–	–	1.34	3.22	1.63	5.39	0.368	2.54	1.81	4.89	1.28	3	1.2	5.43	2.48	8.56	0.364	2.04
CCNCCS(=O)(=O)NC[C@@]1(c2ccccc2)SC(NC(=O)C(C)(C)C)=NN1C(=O)C(C)(C)C	0.0282	> 100	< 0.01	0.0209	< 0.01	> 100	< 0.01	> 100	4.11	> 45.8	11.8	> 76.9	< 0.01	0.768	> 100	> 100	–	–	4.9	> 100
O=C(NNC1=NS(=O)(=O)c2ccccc2N1c1ccccc1)c1cnccn1	> 100	> 100	> 100	> 100	> 100	> 100	> 100	> 100	> 100	> 100	> 100	> 100	> 100	> 100	> 100	> 100	> 100	> 100	> 100	> 100
CN(C)Cc1ccc(O)c(CN(C)C)n1	–	> 100	–	> 100	–	> 100	–	> 100	–	> 100	–	> 100	–	> 100	–	> 100	–	–	–	> 100
Cc1ccc2c(-c3ccnc(Nc4cccc(C(F)(F)F)c4)n3)c(-c3ccccc3)nn2n1	11.8	> 25	10.5	> 17.2	11.1	> 18.3	2.85	> 25	8.47	> 25	8.31	> 16.6	6.56	> 19.6	6.01	17	–	–	1.97	> 25
CN1CCN(CCCCCOc2cc(O)c3c(=O)cc(-c4ccccc4)oc3c2)CC1	–	–	1.71	3.09	2.84	9.66	3.45	11.3	14.9	54.4	2.03	3.78	2.81	7.87	22	46.4	3.04	8.63	1.91	3.87
CN(C)C/C=C/C(=O)Nc1ccc(C(=O)Nc2cccc(Nc3ncc(Cl)c(-c4c[nH]c5ccccc45)n3)c2)cc1	0.0257	0.133	0.0346	0.173	0.0747	0.232	< 0.0116	–	1.54	> 100	0.0216	> 100	0.0199	0.0575	0.106	0.369	–	–	0.0957	–
